These are literature values, as cited in patent US20140256822A1, “TRANSMUCOSAL DRUG DELIVERY SYSTEM” (priority 2013, published 2014).

The conditions of this data set: at a pH of 6.8.

With `CN1CCCC1c1cccnc1` (stereo not shown) [nicotine], the “nicotine in the free base form” value is given as “about 10%”.
